Experimental data from patent publication US20240376097A1, “BCL-2 Inhibitor” (BeiGene Ltd., priority 2020, published 2024).
pIC50: −log10 of the molar value. Where two headings read alike, the source gives them in different places.

Experiments:
[1] = test system: BCL-2 G101V knock-in cell line H96 (derive from RS4;11); assay: Bcl 2-G101V Knock-In RS4;11 Cell Proliferation Assay; format: cell-based; conditions: Homo sapiens, RS4;11 Bcl-2 G101V knock-in clone H96, 48 hrs, CellTiter-GLO, read-out: Cellular proliferation assay (IC50, nM) RS4
How it was run: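 H96, a CRISPR-generated RS4;11 clone carrying BCL2-G101V knock-in (WES/RNA-seq validated), seeded 50,000 per well and exposed 48 h at 37 °C to 10-point dilutions topping at 1 or 10 μM. Viability by CellTiter-Glo luminescence; mean IC50.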

[2] = test system: recombinant human Bcl-2-G101V protein; assay: Bcl-2-G101V TR-FRET Assay; format: binding; conditions: ratio of biochemical IC50 Bcl-2 G101V / Bcl-2 WT
How it was run: (§1)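 Ex337/em490 & 520 nm TR-FRET; % inhibition of Bcl-2-G101V–ligand interaction from 490:520 ratio vs. increasing compound conc.; IC50 by 4-parameter logistic fit.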

[3] = target: recombinant human Bcl-2-G101V protein (Homo sapiens (Human), UniProt P10415, G101V); assay: Bcl-2-G101V TR-FRET Assay; format: binding; conditions: Bcl-2 G101V mutant, TR-FRET; read-out: Biochemical assay (IC50, nM) Bcl-2 G101V
How it was run: as §1

[4] = target: Recombinant human Bcl-2 protein (Homo sapiens (Human), UniProt P10415); assay: Bcl-2 TR-FRET Assay; format: binding
How it was run: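 0.05 nM recombinant Bcl-2 preincubated 0.5 h at room temperature with 10-point compound dilutions (top final 1, 0.1, 0.02 or 0.01 uM) in pH 7.5 phosphate buffer. FITC-Bak peptide (0.5 nM) and anti-6His Tb cryptate then added for 1 h. TR-FRET read; IC50 from four-parameter logistic fit.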

[5] = test system: RS4;11 (BCL-2 dependent acute lymphoblastic leukemia cell line); assay: RS4;11 Cell Proliferation Assay; format: cell-based; conditions: Homo sapiens, RS4-11, RS4;11 cells, read-out: Cellular proliferation assay (IC50, nM) RS4
How it was run: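 RS4;11 cells, 50,000 per well in RPMI-1640 with 10% FBS, treated 48 h at 37 °C with a 10-point dilution series topping at 1 μM. Viability read by CellTiter-Glo ATP luminescence; mean IC50 reported.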

[6] = target: recombinant human Bcl-2 D103Y protein (Homo sapiens (Human), UniProt P10415, D103Y); assay: Bcl-2-D103Y Biochemical Assay (TR-FRET); format: binding; conditions: for pIC50: TR-FRET, FITC labeled Bak peptide; for Ratio of Bcl-2 D103Y/Bcl-2 WT: ratio of IC50
How it was run: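 Recombinant human Bcl-2 D103Y binding to its ligand measured by TR-FRET (ex 337 nm, em 490/520 nm) with increasing compound concentrations. Percent inhibition from the 490/520 nm ratio; IC50 from four-parameter logistic fit.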

[7] = Bcl-2 wild type, TR-FRET, read-out: Biochemical assay (IC50, nM) Bcl-2 WT
[8] = wild type Bcl-2, unit inferred, read-out: Bcl-2 WT

| SMILES | IC50 [1] [nM] | Ratio of Bcl-2 G101V/WT [2] | IC50 [3] [nM] | IC50 [4, 7] [nM] | IC50 [4, 8] [nM] | IC50 [5] [nM] | pIC50 [6] | Ratio of Bcl-2 D103Y/Bcl-2 WT [6] |
| --- | --- | --- | --- | --- | --- | --- | --- | --- |
| COc1ccc(CN2CCN(C3CC4(CCN(c5ccc(C(=O)NS(=O)(=O)c6ccc(NC[C@H]7CC[C@](C)(O)CC7)c([N+](=O)[O-])c6)c(Oc6cnc7[nH]ccc7c6)c5)CC4)C3)C(c3ccccc3C(C)C)C2)cc1C (stereo partly shown) [Example 144, 2-((1H-pyrrolo[2,3-b]pyridin-5-yl)oxy)-N-((4-((((1r,4r)-4-hydroxy-4-methylcyclohexyl)methyl)amino)-3-nitrophenyl)sulfonyl)-4-(2-(2-(2-isopropylphenyl)-4-(4-methoxy-3-methylbenzyl)piperazin-1-yl)-7-azaspiro[3.5]nonan-7-yl)benzamide] | 2.8 | 4.1 | 1.1 | 0.26 | 0.26 | 0.463 | 9.33 | 1.8 |
| COc1cc(CN2CCN(C3CC4(CCN(c5ccc(C(=O)NS(=O)(=O)c6ccc(NC[C@H]7CC[C@](C)(O)CC7)c([N+](=O)[O-])c6)c(Oc6cnc7[nH]ccc7c6)c5)CC4)C3)C(c3ccccc3C(C)C)C2)cc(C)c1OC (stereo partly shown) [Example 158] | 1.52 | 2.8 | 0.75 | 0.27 | 0.27 | 0.322 | 9.43 | 1.3 |
| C#Cc1ccc(CN2CCN(C3CC4(CCN(c5ccc(C(=O)NS(=O)(=O)c6ccc(NC[C@H]7CC[C@](C)(O)CC7)c([N+](=O)[O-])c6)c(Oc6cnc7[nH]ccc7c6)c5)CC4)C3)C(c3ccccc3C(C)C)C2)cc1OC (stereo partly shown) [Example 162] | 2.04 | 3.8 | 1.5 | 0.38 | 0.38 | 0.373 | 9.21 | 1.6 |
| COc1ccc(CN2CCN(C3CC4(C3)CN(c3ccc(C(=O)NS(=O)(=O)c5ccc(NC[C@H]6CC[C@](C)(O)CC6)c([N+](=O)[O-])c5)c(Oc5cnc6[nH]cc(Cl)c6c5)c3)C4)[C@H](c3ccccc3C(C)C)C2)cc1OC [Example 164, 2-((3-chloro-1H-pyrrolo[2,3-b]pyridin-5-yl)oxy)-4-(6-((R)-4-(3,4-dimethoxybenzyl)-2-(2-isopropylphenyl)piperazin-1-yl)-2-azaspiro[3.3]heptan-2-yl)-N-((4-((((1r,4r)-4-hydroxy-4-methylcyclohexyl)methyl)amino)-3-nitrophenyl)sulfonyl)benzamide] | 0.82 | 3 | 0.35 | 0.12 | 0.12 | 0.23 | 9.92 | 1 |
| COc1ccc(CN2CCN(C3CC4(CCN(c5ccc(C(=O)NS(=O)(=O)c6ccc(NC[C@H]7CC[C@](C)(O)CC7)c([N+](=O)[O-])c6)c(Oc6cnc7[nH]cc(Cl)c7c6)c5)CC4)C3)[C@H](c3ccccc3C(C)C)C2)cc1OC [Example 174, 2-((3-chloro-1H-pyrrolo[2,3-b]pyridin-5-yl)oxy)-4-(2-((R)-4-(3,4-dimethoxybenzyl)-2-(2-isopropylphenyl)piperazin-1-yl)-7-azaspiro[3.5]nonan-7-yl)-N-((4-((((1r,4r)-4-hydroxy-4-methylcyclohexyl)methyl)amino)-3-nitrophenyl)sulfonyl)benzamide] | 0.49 | 6.1 | 0.59 | 0.096 | 0.096 | 0.18 | 9.85 | 1.4 |
